Measured values published in BigSolDB 2.1.

CS(=O)(=O)c1ccc([C@@H](O)[C@@H](CO)NC(=O)C(Cl)Cl)cc1
solubility (mole fraction)
Details	278.15 K	283.15 K	288.15 K	293.15 K	298.15 K	303.15 K	308.15 K	313.15 K	318.15 K
in 1,4-dioxane	–	–	0.000384	0.000508	0.000728	0.000973	0.0013	0.00173	0.00227
in 2-butanone	0.000139	0.000197	0.000286	0.000379	0.00051	0.000704	0.000952	0.00125	0.00166
in DMF	0.0092	0.012	0.0156	0.0199	0.025	0.0308	0.0379	0.0457	0.0553
in acetone	0.000283	0.000425	0.000585	0.00084	0.00112	0.00149	0.00202	0.00268	0.00352
in acetonitrile	7.96e-05	0.000119	0.000177	0.000259	0.000363	0.000502	0.000716	0.00098	0.00134
in ethanol	0.000102	0.000148	0.000219	0.000309	–	0.000625	0.000837	0.00115	0.00157
in ethyl acetate	6.24e-05	9.09e-05	0.000124	0.000171	0.000246	0.000348	0.000471	0.000643	0.000861
in isopropanol	3.46e-05	5.2e-05	7.13e-05	0.000104	0.000146	0.000201	0.000269	0.000364	0.000493
in methanol	0.00023	0.000345	0.000518	0.000715	0.000993	0.00141	0.00189	0.00259	0.00341
in n-butanol	9.54e-06	1.38e-05	2.08e-05	3.1e-05	4.46e-05	6.39e-05	8.42e-05	0.000123	0.000165
in n-propanol	5.11e-05	7.34e-05	0.000103	0.000147	0.000199	0.000285	0.00038	0.000509	0.000687
in toluene	3.96e-06	6.03e-06	8.89e-06	1.28e-05	1.89e-05	2.7e-05	3.81e-05	5.53e-05	7.6e-05
in water	2.5e-05	3.42e-05	4.96e-05	7.3e-05	9.52e-05	0.000132	0.000187	0.000253	0.000339
